Patent publication US9796711B2, “Substituted pyrazolo[3,4-b]pyridin-6-carboxylic acids and method of use” (AbbVie S.àr.l., priority 2015, dated 2017)

How the values were obtained:
ΔF508-CFTR [1] = biological target: T1, ΔF508-CFTR (Homo sapiens, UniProt P13569, DEL508-508); assay: CFTR cell surface levels using HRP-tagged ΔF508-CFTR expressing CFBE cells, in the presence of a co-corrector; type: cell-based
T1 construct: host or cells: CFBE41o-, doxycycline-inducible
In short: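 Cells were seeded with 0.5 μg/mL doxycycline and held 68 h at 37 °C. Test compounds plus 3 μM co-corrector (final 0.1% DMSO) were then added for 20 h at 33 °C. Washed cells received HRP substrate, and luminescence was normalized between DMSO and 3 μM co-corrector controls.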

ΔF508-CFTR [2] = biological target: T1, ΔF508-CFTR; assay: CFTR cell surface levels using HRP-tagged ΔF508-CFTR expressing CFBE cells, intrinsic corrector capacity; type: cell-based
In short: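 Here the cells express ΔF508-CFTR with horseradish peroxidase inserted in extracellular loop 4, so only rescued channel at the surface gives luminescent signal. Compounds act on their own, 20 h at the reduced temperature of 33 °C; values are percent activity relative to DMSO and a 3 μM corrector.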

[3] = HRP-tagged ΔF508-CFTR expressing CFBE cells, in the presence of 3 μM co-corrector
[4] = HRP-tagged ΔF508-CFTR expressing CFBE cells, in the presence of 3 μM co-corrector, read-out: EC50
[5] = HRP-tagged ΔF508-CFTR expressing CFBE cells, intrinsic corrector capacity (no co-corrector), 33° C., 20 hours
[6] = HRP-tagged ΔF508-CFTR expressing CFBE cells, intrinsic corrector capacity (no co-corrector), 33° C., 20 hours, read-out: EC50

T1 sequence (P13569 with tags, fused parts or gaps DEL508-508): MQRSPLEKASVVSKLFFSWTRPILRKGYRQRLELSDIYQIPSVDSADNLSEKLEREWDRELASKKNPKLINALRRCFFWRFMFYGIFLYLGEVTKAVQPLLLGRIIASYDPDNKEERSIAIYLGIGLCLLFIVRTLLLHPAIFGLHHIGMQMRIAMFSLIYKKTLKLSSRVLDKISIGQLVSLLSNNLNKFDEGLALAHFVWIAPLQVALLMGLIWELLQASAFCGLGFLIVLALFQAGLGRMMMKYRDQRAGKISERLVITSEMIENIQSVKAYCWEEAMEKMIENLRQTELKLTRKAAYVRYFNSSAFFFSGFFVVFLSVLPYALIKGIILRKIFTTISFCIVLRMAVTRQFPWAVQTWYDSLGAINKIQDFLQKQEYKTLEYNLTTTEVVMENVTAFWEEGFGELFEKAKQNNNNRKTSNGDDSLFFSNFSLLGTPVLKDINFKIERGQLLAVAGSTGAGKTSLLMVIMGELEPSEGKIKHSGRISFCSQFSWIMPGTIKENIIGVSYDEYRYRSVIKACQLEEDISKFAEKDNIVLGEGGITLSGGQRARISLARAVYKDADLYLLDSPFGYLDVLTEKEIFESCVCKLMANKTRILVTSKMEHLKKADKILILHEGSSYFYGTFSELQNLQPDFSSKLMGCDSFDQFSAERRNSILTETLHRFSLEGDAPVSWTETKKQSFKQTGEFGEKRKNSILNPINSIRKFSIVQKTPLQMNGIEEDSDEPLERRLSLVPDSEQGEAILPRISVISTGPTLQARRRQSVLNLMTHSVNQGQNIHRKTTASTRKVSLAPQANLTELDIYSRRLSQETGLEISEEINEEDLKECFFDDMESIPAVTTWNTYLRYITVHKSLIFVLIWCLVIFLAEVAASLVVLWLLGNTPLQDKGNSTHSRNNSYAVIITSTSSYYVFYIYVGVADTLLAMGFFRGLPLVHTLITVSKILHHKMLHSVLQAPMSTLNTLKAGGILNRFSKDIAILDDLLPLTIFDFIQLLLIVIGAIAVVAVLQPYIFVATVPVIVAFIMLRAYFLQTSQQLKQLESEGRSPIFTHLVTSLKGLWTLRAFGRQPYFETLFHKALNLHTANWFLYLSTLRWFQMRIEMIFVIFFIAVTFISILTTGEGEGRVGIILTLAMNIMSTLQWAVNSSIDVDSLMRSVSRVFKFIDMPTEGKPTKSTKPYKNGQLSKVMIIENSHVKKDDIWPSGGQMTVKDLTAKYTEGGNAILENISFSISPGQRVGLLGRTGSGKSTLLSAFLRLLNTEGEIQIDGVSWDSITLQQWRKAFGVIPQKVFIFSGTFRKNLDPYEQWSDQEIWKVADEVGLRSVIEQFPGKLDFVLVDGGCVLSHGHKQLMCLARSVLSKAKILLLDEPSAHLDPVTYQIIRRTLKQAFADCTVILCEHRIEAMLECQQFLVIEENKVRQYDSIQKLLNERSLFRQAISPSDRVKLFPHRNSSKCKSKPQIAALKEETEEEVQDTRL

Q: With O=C(O)c1cc(N2CCN(CCCN3CCOCC3)CC2)c2c(C3CCC3)nn(-c3ccccc3)c2n1 [compound 558, 3-cyclobutyl-4-{4-[3-(morpholin-4-yl)propyl]piperazin-1-yl}-1-phenyl-1H-pyrazolo[3,4-b]pyridine-6-carboxylic acid] as the compound, how does the “% Activation” value (ΔF508-CFTR [1]; [3]) read?
A: 322.5%

Q: What about the EC50 (ΔF508-CFTR [1]; [4]) of the same compound?
A: 778 nM

Q: And the “% Activation” value (ΔF508-CFTR [2]; [5])?
A: 121.3%

Q: What about the EC50 (ΔF508-CFTR [2]; [6]) of the same compound?
A: 1370 nM

Q: What does the source list for N#CCCN1CCN(c2cc(C(=O)O)nc3c2c(C2CCC2)nn3-c2ccccc2)CC1 [compound 561, 4-[4-(2-cyanoethyl)piperazin-1-yl]-3-cyclobutyl-1-phenyl-1H-pyrazolo[3,4-b]pyridine-6-carboxylic acid]?
A: % Activation (ΔF508-CFTR [1]; [3]): 348%; EC50 (ΔF508-CFTR [1]; [4]): 427 nM; % Activation (ΔF508-CFTR [2]; [5]): 174.8%; EC50 (ΔF508-CFTR [2]; [6]): 1590 nM

Q: What does the source list for CN(C)CC1CN(c2cc(C(=O)O)nc3c2c(C2CCC2)nn3-c2ccccc2)CCO1 (centres unmarked) [compound 562, 3-cyclobutyl-4-{2-[(dimethylamino)methyl]morpholin-4-yl}-1-phenyl-1H-pyrazolo[3,4-b]pyridine-6-carboxylic acid]?
A: % Activation (ΔF508-CFTR [1]; [3]): 347%; EC50 (ΔF508-CFTR [1]; [4]): 921 nM; % Activation (ΔF508-CFTR [2]; [5]): 154.7%; EC50 (ΔF508-CFTR [2]; [6]): 1770 nM

Q: With CCOCCN1CCN(c2cc(C(=O)O)nc3c2c(C2CCC2)nn3-c2ccccc2)CC1 [compound 566, 3-cyclobutyl-4-[4-(2-ethoxyethyl)piperazin-1-yl]-1-phenyl-1H-pyrazolo[3,4-b]pyridine-6-carboxylic acid] as the compound, how does the “% Activation” value (ΔF508-CFTR [1]; [3]) read?
A: 365.3%

Q: What about the EC50 (ΔF508-CFTR [1]; [4]) of the same compound?
A: 407 nM

Q: What about the “% Activation” value (ΔF508-CFTR [2]; [5]) of the same compound?
A: 150.5%

Q: And the EC50 (ΔF508-CFTR [2]; [6])?
A: 388 nM

Q: Which results are given for COCCN1CCN(c2cc(C(=O)O)nc3c2c(C2CCC2)nn3-c2ccccc2)CC1 [compound 571, 3-cyclobutyl-4-[4-(2-methoxyethyl)piperazin-1-yl]-1-phenyl-1H-pyrazolo[3,4-b]pyridine-6-carboxylic acid]?
A: EC50 (ΔF508-CFTR [1]): 328 nM; % Activation (ΔF508-CFTR [1]; [3]): 334.05%; EC50 (ΔF508-CFTR [2]): 812 nM; % Activation (ΔF508-CFTR [2]; [5]): 189.6%

Q: CC(C)OC1CN(c2cc(C(=O)O)nc3c2c(C2CCC2)nn3-c2ccccc2)C1 [compound 573, 3-cyclobutyl-1-phenyl-4-{3-[(propan-2-yl)oxy]azetidin-1-yl}-1H-pyrazolo[3,4-b]pyridine-6-carboxylic acid] was tested. Which “% Activation” value (ΔF508-CFTR [1]; [3]) did it give?
A: 376%

Q: And the EC50 (ΔF508-CFTR [1]; [4])?
A: 299 nM

Q: And the “% Activation” value (ΔF508-CFTR [2]; [5])?
A: 149.7%

Q: And the EC50 (ΔF508-CFTR [2]; [6])?
A: 974 nM

Q: How did the “% Activation” value (ΔF508-CFTR [1]; [3]) turn out when O=C(O)c1cc(N2CC[C@@H](N3CCOCC3)C2)c2c(C3CCC3)nn(-c3ccccc3)c2n1 [compound 577, 3-cyclobutyl-4-[(3R)-3-(morpholin-4-yl)pyrrolidin-1-yl]-1-phenyl-1H-pyrazolo[3,4-b]pyridine-6-carboxylic acid] was run?
A: 300.47%

Q: What about the EC50 (ΔF508-CFTR [1]; [4]) of the same compound?
A: 1150 nM

Q: What about the “% Activation” value (ΔF508-CFTR [2]; [5]) of the same compound?
A: 108%

Q: And the EC50 (ΔF508-CFTR [2]; [6])?
A: 3030 nM

Q: How did the “% Activation” value (ΔF508-CFTR [1]; [3]) turn out when O=C(O)c1cc(OC2CCC(F)(F)CC2)c2c(C3CCC3)nn(-c3ccccc3)c2n1 [compound 578, 3-cyclobutyl-4-[(4,4-difluorocyclohexyl)oxy]-1-phenyl-1H-pyrazolo[3,4-b]pyridine-6-carboxylic acid] was run?
A: 301.55%

Q: What about the EC50 (ΔF508-CFTR [1]; [4]) of the same compound?
A: 224 nM

Q: What about the “% Activation” value (ΔF508-CFTR [2]; [5]) of the same compound?
A: 118.2%

Q: And the EC50 (ΔF508-CFTR [2]; [6])?
A: 334 nM

Q: Which “% Activation” value (ΔF508-CFTR [1]; [3]) does the source give for O=C(O)c1cc(OC2CCOCC2)c2c(C3CCC3)nn(-c3ccccc3)c2n1 [compound 579, 3-cyclobutyl-4-[(oxan-4-yl)oxy]-1-phenyl-1H-pyrazolo[3,4-b]pyridine-6-carboxylic acid] here?
A: 263.5%

Q: What about the EC50 (ΔF508-CFTR [1]; [4]) of the same compound?
A: 267 nM

Q: What about the “% Activation” value (ΔF508-CFTR [2]; [5]) of the same compound?
A: 97.37%

Q: And the EC50 (ΔF508-CFTR [2]; [6])?
A: 238 nM

Q: How did the “% Activation” value (ΔF508-CFTR [1]; [3]) turn out when CO[C@H]1CCCC[C@@H]1Oc1cc(C(=O)O)nc2c1c(C1CCC1)nn2-c1ccccc1 [compound 580, 3-cyclobutyl-4-{[(1S,2S)-2-methoxycyclohexyl]oxy}-1-phenyl-1H-pyrazolo[3,4-b]pyridine-6-carboxylic acid] was run?
A: 288%

Q: What about the EC50 (ΔF508-CFTR [1]; [4]) of the same compound?
A: 312 nM

Q: And the “% Activation” value (ΔF508-CFTR [2]; [5])?
A: 88.82%

Q: What about the EC50 (ΔF508-CFTR [2]; [6]) of the same compound?
A: 333 nM

Q: CCC1(COc2cc(C(=O)O)nc3c2c(C2CCC2)nn3-c2ccccc2)COC1 [compound 581, 3-cyclobutyl-4-[(3-ethyloxetan-3-yl)methoxy]-1-phenyl-1H-pyrazolo[3,4-b]pyridine-6-carboxylic acid] was tested. Which “% Activation” value (ΔF508-CFTR [1]; [3]) did it give?
A: 377.8%

Q: What about the EC50 (ΔF508-CFTR [1]; [4]) of the same compound?
A: 203 nM

Q: What about the “% Activation” value (ΔF508-CFTR [2]; [5]) of the same compound?
A: 146%

Q: What about the EC50 (ΔF508-CFTR [2]; [6]) of the same compound?
A: 250 nM

Q: Which “% Activation” value (ΔF508-CFTR [1]; [3]) does the source give for O=C(O)c1cc(O[C@@H]2CCOC2)c2c(C3CCC3)nn(-c3ccccc3)c2n1 [compound 582, 3-cyclobutyl-4-{[(3R)-oxolan-3-yl]oxy}-1-phenyl-1H-pyrazolo[3,4-b]pyridine-6-carboxylic acid] here?
A: 307.5%

Q: What about the EC50 (ΔF508-CFTR [1]; [4]) of the same compound?
A: 614 nM

Q: And the “% Activation” value (ΔF508-CFTR [2]; [5])?
A: 92.03%

Q: And the EC50 (ΔF508-CFTR [2]; [6])?
A: 903 nM

Q: How did the “% Activation” value (ΔF508-CFTR [1]; [3]) turn out when O=C(O)c1cc(O[C@H]2CCOC2)c2c(C3CCC3)nn(-c3ccccc3)c2n1 [compound 583] was run?
A: 287.75%

Q: And the EC50 (ΔF508-CFTR [1]; [4])?
A: 460 nM

Q: What about the “% Activation” value (ΔF508-CFTR [2]; [5]) of the same compound?
A: 134.7%

Q: What about the EC50 (ΔF508-CFTR [2]; [6]) of the same compound?
A: 1020 nM

Q: What does the source list for COCC1CCN(c2cc(C(=O)O)nc3c2c(C(C)C)nn3-c2ccnc(N3CCOCC3)n2)CC1 [compound 589]?
A: % Activation (ΔF508-CFTR [1]; [3]): 451.75%; EC50 (ΔF508-CFTR [1]; [4]): 303 nM; % Activation (ΔF508-CFTR [2]; [5]): 232.15%; EC50 (ΔF508-CFTR [2]; [6]): 458 nM

Q: Which EC50 (ΔF508-CFTR [1]) does the source give for O=C(O)c1cc(NCC2CCOCC2)c2c(C3CCC3)nn(-c3ccccc3)c2n1 [compound 590, 3-cyclobutyl-4-{[(oxan-4-yl)methyl]amino}-1-phenyl-1H-pyrazolo[3,4-b]pyridine-6-carboxylic acid] here?
A: 2030 nM

Q: What about the “% Activation” value (ΔF508-CFTR [1]; [3]) of the same compound?
A: 310.45%

Q: And the EC50 (ΔF508-CFTR [2])?
A: 2610 nM

Q: What about the “% Activation” value (ΔF508-CFTR [2]; [5]) of the same compound?
A: 141.3%

Q: For N#CC1CCN(c2ccc(-c3cc(C(=O)O)nc4c3c(OC3CCOC3)nn4-c3ccccc3)cn2)CC1 (centres unmarked) [compound 591, 4-[6-(4-cyanopiperidin-1-yl)pyridin-3-yl]-3-[(oxolan-3-yl)oxy]-1-phenyl-1H-pyrazolo[3,4-b]pyridine-6-carboxylic acid], which “% Activation” value (ΔF508-CFTR [1]; [3]) is on record?
A: 286.4%

Q: What about the EC50 (ΔF508-CFTR [1]; [4]) of the same compound?
A: 450 nM

Q: And the “% Activation” value (ΔF508-CFTR [2]; [5])?
A: 106.3%

Q: What about the EC50 (ΔF508-CFTR [2]; [6]) of the same compound?
A: 926 nM

Q: N#CC1CCN(c2ccc(-c3cc(C(=O)O)nc4c3c(OC3COC3)nn4-c3ccccc3)cn2)CC1 [compound 592, 4-[6-(4-cyanopiperidin-1-yl)pyridin-3-yl]-3-[(oxetan-3-yl)oxy]-1-phenyl-1H-pyrazolo[3,4-b]pyridine-6-carboxylic acid] was tested. Which “% Activation” value (ΔF508-CFTR [1]; [3]) did it give?
A: 279%

Q: And the EC50 (ΔF508-CFTR [1]; [4])?
A: 584 nM

Q: What about the “% Activation” value (ΔF508-CFTR [2]; [5]) of the same compound?
A: 116.6%

Q: What about the EC50 (ΔF508-CFTR [2]; [6]) of the same compound?
A: 1160 nM

Q: Which results are given for O=C(O)c1cc(N2CCC(F)(F)CC2)c2c(C3CCC3)nn(-c3ccccc3)c2n1 [compound 594, 3-cyclobutyl-4-(4,4-difluoropiperidin-1-yl)-1-phenyl-1H-pyrazolo[3,4-b]pyridine-6-carboxylic acid]?
A: % Activation (ΔF508-CFTR [1]; [3]): 269.8%; EC50 (ΔF508-CFTR [1]; [4]): 621 nM; % Activation (ΔF508-CFTR [2]; [5]): 75.66%; EC50 (ΔF508-CFTR [2]; [6]): 787 nM

Q: COCC1(F)CCCN(c2cc(C(=O)O)nc3c2c(C2CCC2)nn3-c2ccccc2)C1 (centres unmarked) [compound 595, 3-cyclobutyl-4-[3-fluoro-3-(methoxymethyl)piperidin-1-yl]-1-phenyl-1H-pyrazolo[3,4-b]pyridine-6-carboxylic acid] was tested. Which “% Activation” value (ΔF508-CFTR [1]; [3]) did it give?
A: 383.8%

Q: And the EC50 (ΔF508-CFTR [1]; [4])?
A: 207 nM

Q: And the “% Activation” value (ΔF508-CFTR [2]; [5])?
A: 162.8%

Q: And the EC50 (ΔF508-CFTR [2]; [6])?
A: 347 nM

Q: How did the “% Activation” value (ΔF508-CFTR [1]; [3]) turn out when O=C(O)c1cc(N2CCOC(C(F)(F)F)C2)c2c(C3CCC3)nn(-c3ccccc3)c2n1 (centres unmarked) [compound 596, 3-cyclobutyl-1-phenyl-4-[2-(trifluoromethyl)morpholin-4-yl]-1H-pyrazolo[3,4-b]pyridine-6-carboxylic acid] was run?
A: 299.4%

Q: What about the EC50 (ΔF508-CFTR [1]; [4]) of the same compound?
A: 522 nM

Q: What about the “% Activation” value (ΔF508-CFTR [2]; [5]) of the same compound?
A: 99.54%

Q: And the EC50 (ΔF508-CFTR [2]; [6])?
A: 735 nM
